Measurements from patent US4866069A, “Substance 4181-2 and its derivatives having anti-leukemia activity” (Taiho Pharmaceutical Company, Limited, priority 1986, dated 1989).
Values after ≈ are worked out from the molar mass of the structure shown.

Assays:
[1] = tested on: leukemia P388 cells; test: Antitumor activity: life span-prolonging effect in mouse leukemia; format: in vivo, BDF1 mice; settings: for % Increase in survival time / Mean survival time: 3 mg/kg intraperitoneally, day after i.p. injection of 1×10^6 P388 cells, BDF1 mice; for % Increase in survival time: ((D/D0)-1)×100 vs untreated; for Mean survival time: untreated control 9.3 ± 0.8 days
Protocol: The antitumor activity of Substance 4181-2 and its derivatives was evaluated in terms of the increase in life span. One ×10^6 of leukemia P388 cells were intraperitoneally injected to BDF1 mice. Each group consisted of 6 mice. On the following day, each of Compounds 1-4, suspended in 0.2% solution of Tween 80 in physiological saline, was administered intraperitoneally and the survival time in days was determined. The percent increase in survival time was calculated by means of the following formula.
Percent increase in survival time=((D/D0)-1)×100 wherein D0 stands for the mean survival time (days) in the untreated group and D stands for the mean survival time (days) in the treated group.

[2] = Acute toxicity study (up-and-down method); design: species or system mice of ddY strain; settings: mouse, in vivo, ip, intraperitoneal, male ddY mice, 25 g
Protocol: Male mice of ddY strain (body weight 25 g) were used. Each of Compounds 1-4 was suspended in 0.2% solution of Tween 80 in physiological saline and administered intraperitoneally to the animals. The LD50 values (mg/kg) were determined by the up-and-down method.

[3] = tested on: Proteus vulgalis IFO 3045; test: Antimicrobial spectrum (MIC), two-fold serial dilution; format: cell-based; settings: nutrient agar medium
Protocol: (§1) The antibacterial and antifungal spectra of Substance 4181-2 were investigated. Using nutrient agar medium for gram-positive and gram-negative bacteria and Sabouraud's agar medium for fungi, the minimal inhibitory concentration (MIC) was determined by a two-fold serial dilution method.

[4] = tested on: Escherichia coli B IFO 13168; test: as above; format: cell-based; settings: IFO13168, nutrient agar medium
Protocol: as §1

[5] = tested on: Penicillium notatum IFO 4640; test: as above; format: cell-based; settings: Penicillium chrysogenum, IFO4640, Sabouraud's agar medium
Protocol: as §1

[6] = tested on: Staphylococcus aureus 209P; test: as above; format: cell-based; settings: nutrient agar medium
Protocol: as §1

[7] = tested on: Saccharomyces delbrueckii IAM 12236; test: as above; format: cell-based; settings: Torulaspora delbrueckii, IAM12236, Sabouraud's agar medium
Protocol: as §1

[8] = tested on: Micrococcus flavus ATCC 10240; test: as above; format: cell-based; settings: ATCC10240, nutrient agar medium
Protocol: as §1

[9] = tested on: Klebsiella pneumoniae ATCC 10031; test: as above; format: cell-based; settings: ATCC10031, nutrient agar medium
Protocol: as §1

[10] = tested on: Bacillus subtilis ATCC 6633; test: as above; format: cell-based; settings: ATCC6633, nutrient agar medium
Protocol: as §1

[11] = tested on: Aspergillus niger IFO 6341; test: as above; format: cell-based; settings: IFO6341, Sabouraud's agar medium
Protocol: as §1

[12] = tested on: Pseudomonus fluorescens IFO 12180; test: as above; format: cell-based; settings: nutrient agar medium
Protocol: as §1

[13] = tested on: Candida albicans IFO 1061; test: as above; format: cell-based; settings: IFO1061, Sabouraud's agar medium
Protocol: as §1

[14] = tested on: Trichophyton mentagrophytes IFO 5466; test: as above; format: cell-based; settings: IFO5466, Sabouraud's agar medium
Protocol: as §1

[15] = tested on: microorganisms including gram-positive bacteria, gram-negative bacteria and fungi; test: Antimicrobial activity (summary statement); format: cell-based
Protocol: as §1

[16] = literature statement; cited from earlier work

SMILES	% Increase in survival time [1]	Mean survival time [1]	LD50 [2]	antimicrobial activity (in words) [16]	further results
COc1cc2oc3c(c(=O)c2cc1O)C(=O)c1c(ccc2cc4c(c(O)c12)C(=O)N1CCOC1(C)C4)C3=O (stereo not shown) [Compound 1, Substance 4181-2]	94%	18.0 ± 1.4 days	≥ 40 mg/kg		antitumor activity (in words) ([1]; summary statement): excellent antitumor activity; MIC [3]: 0.39 µg/mL (≈ 0.76 µM); MIC [4]: 1.56 µg/mL (≈ 3.04 µM); MIC [5]: 1.56 µg/mL (≈ 3.04 µM); MIC [6]: 0.2 µg/mL (≈ 0.39 µM); MIC [7]: 1.56 µg/mL (≈ 3.04 µM); MIC [8]: 0.2 µg/mL (≈ 0.39 µM); MIC [9]: 3.13 µg/mL (≈ 6.1 µM); MIC [10]: 0.2 µg/mL (≈ 0.39 µM); MIC [11]: 3.13 µg/mL (≈ 6.1 µM); MIC [12]: 0.2 µg/mL (≈ 0.39 µM); MIC [13]: 0.39 µg/mL (≈ 0.76 µM); MIC [14]: 0.78 µg/mL (≈ 1.52 µM); antimicrobial spectrum (in words) [15]: broad antimicrobial spectrum
COc1cc2oc3c(c(=O)c2cc1OC(C)=O)C(=O)c1c(ccc2cc4c(c(OC(C)=O)c12)C(=O)N1CCOC1(C)C4)C3=O (stereo not shown) [Compound 2, diacetyl derivative of Substance 4181-2]	59%	14.8 ± 0.8 days	≥ 40 mg/kg		
COc1cc2oc3c(c(=O)c2cc1OC)C(=O)c1c(ccc2cc4c(c(O)c12)C(=O)N1CCOC1(C)C4)C3=O (stereo not shown) [Compound 3, monomethyl derivative of Substance 4181-2]	63%	15.2 ± 1.7 days	≥ 40 mg/kg		
COc1cc2oc3c(c(=O)c2cc1OC)C(=O)c1c(ccc2cc4c(c(OC(C)=O)c12)C(=O)N1CCOC1(C)C4)C3=O (stereo not shown) [Compound 4, monomethyl monoacetyl derivative of Substance 4181-2]	53%	14.2 ± 0.8 days	≥ 40 mg/kg		
COc1cc2oc3c(O)c4ccc5cc6c(c(O)c5c4c(O)c3c(=O)c2cc1OC)C(=O)N1CCOC1(C)C6 (stereo not shown) [cervinomycin A1]				have antimicrobial activity	
COc1cc2oc3c(c(=O)c2cc1OC)C(=O)c1c(ccc2cc4c(c(O)c12)C(=O)N1CCOC1(C)C4)C3=O (stereo not shown) [cervinomycin A2]				have antimicrobial activity	
